Measurements: PubChem BioAssay AID330 (DTP/NCI, 2004)
Values joined by “and” are separate entries in the source; they are usually repeats but may differ in a detail not shown here. Equal values may be shown once. Inconclusive results and toxic doses are left out. Rule for the calls: active = survival T/C of 150% or more; inactive = T/C below 125% in these data.

Tested on: P388 leukemia ip, CD2F1 mice, survival T/C
Assay: NCI In Vivo Anticancer Drug Screen. Data for tumor model P388 Leukemia (intraperitoneal) in CD2F1 (CDF1) mice
Conditions: endpoint: median survival time, higher = longer survival
How it was run: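 Mice carrying the transplanted tumor received test compound or vehicle. Survival was recorded in each group, and the value is the treated-group measurement divided by that of the vehicle-treated control group.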

[1] = dose: 100.0 mg/kg/injection, schedule: Q01DX009 (ip), vehicle: Klucel (hydroxypropylcellulose) (HPC)
[2] = dose: 200.0 mg/kg/injection, schedule: Q01DX009 (ip), vehicle: Klucel (hydroxypropylcellulose) (HPC)
[3] = dose: 100.0 mg/kg/injection, schedule: Q01DX009 (ip), vehicle: saline with Tween-80
[4] = dose: 60.0 mg/kg/injection, schedule: Q01DX005 (ip), vehicle: saline with Tween-80
[5] = dose: 120.0 mg/kg/injection, schedule: Q01DX005 (ip), vehicle: saline with Tween-80
[6] = dose: 240.0 mg/kg/injection, schedule: Q01DX005 (ip), vehicle: saline with Tween-80
[7] = dose: 50.0 mg/kg/injection, schedule: Q01DX009 (ip), vehicle: saline with Tween-80
[8] = dose: 200.0 mg/kg/injection, schedule: Q01DX009 (ip), vehicle: saline with Tween-80

Measured: T/C

O=C(O)CCC(=O)O
inactive: dose: 10.0 mg/kg/injection, schedule: Q01DX009 (ip), vehicle: water 90 % of control | dose: 20.0 mg/kg/injection, schedule: Q01DX009 (ip), vehicle: water 99 % of control and 109 % of control | dose: 40.0 mg/kg/injection, schedule: Q01DX009 (ip), vehicle: water 98 % of control and 94 % of control | dose: 80.0 mg/kg/injection, schedule: Q01DX009 (ip), vehicle: water 96 % of control and 91 % of control | dose: 160.0 mg/kg/injection, schedule: Q01DX009 (ip), vehicle: water 101 % of control and 102 % of control

CCOC(=O)C1CCC=CC1OC(C)=O (configuration not stated)
inactive: dose: 100.0 mg/kg/injection, schedule: Q01DX001 (ip), vehicle: olive oil, sesame oil, peanut oil 112 % of control | dose: 200.0 mg/kg/injection, schedule: Q01DX001 (ip), vehicle: olive oil, sesame oil, peanut oil 108 % of control | dose: 400.0 mg/kg/injection, schedule: Q01DX001 (ip), vehicle: olive oil, sesame oil, peanut oil 107 % of control

Cc1noc(C)c1-c1onc2ccc(Cl)cc12
inactive: [1] 96 % of control | [2] 96 % of control

CCOC(=O)CNC(=O)Sc1ccc(C(C)(C)C)cc1C
inactive: dose: 50.0 mg/kg/injection, schedule: Q01DX005 (ip), vehicle: saline + Tween-80 + alcohol 100 % of control (2×) and 107 % of control | dose: 100.0 mg/kg/injection, schedule: Q01DX005 (ip), vehicle: saline + Tween-80 + alcohol 110 % of control and 111 % of control and 118 % of control | dose: 200.0 mg/kg/injection, schedule: Q01DX005 (ip), vehicle: saline + Tween-80 + alcohol 114 % of control and 120 % of control | dose: 400.0 mg/kg/injection, schedule: Q01DX005 (ip), vehicle: saline + Tween-80 + alcohol 114 % of control

CC(O)CN(CCN(CC(C)O)CC(C)O)CC(C)O (configuration not stated)
inactive: dose: 50.0 mg/kg/injection, schedule: Q01DX005 (ip), vehicle: saline 105 % of control | dose: 100.0 mg/kg/injection, schedule: Q01DX005 (ip), vehicle: saline 103 % of control | dose: 200.0 mg/kg/injection, schedule: Q01DX005 (ip), vehicle: saline 103 % of control

Nc1ccccc1C(=O)Nc1ccccc1
inactive: [3] 88 % of control

CC1COC(C)(C)P(c2ccccc2)C1 (configuration not stated)
inactive: [4] 102 % of control | [5] 105 % of control | [6] 106 % of control

CCCCCCC(=O)/C=C/c1ccc(OC(=O)c2ccc([N+](=O)[O-])cc2)cc1
inactive: dose: 12.5 mg/kg/injection, schedule: Q01DX009 (ip), vehicle: saline 105 % of control | dose: 25.0 mg/kg/injection, schedule: Q01DX009 (ip), vehicle: saline 100 % of control | dose: 50.0 mg/kg/injection, schedule: Q01DX009 (ip), vehicle: saline 103 % of control and 97 % of control | dose: 100.0 mg/kg/injection, schedule: Q01DX009 (ip), vehicle: saline 92 % of control | dose: 200.0 mg/kg/injection, schedule: Q01DX009 (ip), vehicle: saline 92 % of control

CC(C)CC(NC(c1ccccc1)P(=O)(O)O)C(=O)O (configuration not stated)
inactive: [4] 100 % of control | [5] 96 % of control | [6] 91 % of control

CCC1=C(C)c2cc3[n-]c(cc4nc(cc5[n-]c(cc1n2)c(C)c5CCC(=O)OC)C(CCC(=O)OC)=C4C)c(C)c3CC.[Ni+2]
inactive: dose: 18.75 mg/kg/injection, schedule: Q01DX009 (ip), vehicle: saline with Tween-80 87 % of control | dose: 37.5 mg/kg/injection, schedule: Q01DX009 (ip), vehicle: saline with Tween-80 87 % of control | dose: 75.0 mg/kg/injection, schedule: Q01DX009 (ip), vehicle: saline with Tween-80 94 % of control

CCCCCCC(C)NN (configuration not stated)
inactive: dose: 100.0 mg/kg/injection, schedule: Q04DX003 (ip), vehicle: saline with Tween-80 86 % of control

COc1cc2c(c3c1c(=O)c1cc(F)ccc1n3C)C=CC(C)(C)O2
inactive: dose: 50.0 mg/kg/injection, schedule: Q01DX005 (ip), vehicle: Klucel (hydroxypropylcellulose) (HPC) 103 % of control | dose: 100.0 mg/kg/injection, schedule: Q01DX005 (ip), vehicle: Klucel (hydroxypropylcellulose) (HPC) 100 % of control and 104 % of control | dose: 200.0 mg/kg/injection, schedule: Q01DX005 (ip), vehicle: Klucel (hydroxypropylcellulose) (HPC) 105 % of control and 98 % of control

CSC(=N)c1cccc(OCCOc2ccccc2)c1
inactive: dose: 15.0 mg/kg/injection, schedule: Q01DX005 (ip), vehicle: Klucel (hydroxypropylcellulose) (HPC) 96 % of control | dose: 30.0 mg/kg/injection, schedule: Q01DX005 (ip), vehicle: Klucel (hydroxypropylcellulose) (HPC) 98 % of control | dose: 60.0 mg/kg/injection, schedule: Q01DX005 (ip), vehicle: Klucel (hydroxypropylcellulose) (HPC) 91 % of control | [4] 93 % of control | dose: 120.0 mg/kg/injection, schedule: Q01DX005 (ip), vehicle: Klucel (hydroxypropylcellulose) (HPC) 86 % of control | [5] 101 % of control | dose: 240.0 mg/kg/injection, schedule: Q01DX005 (ip), vehicle: Klucel (hydroxypropylcellulose) (HPC) 91 % of control | [6] 99 % of control

Cc1c(C)[n+](=O)c2ccc(/C=[N+](\C)[O-])cc2n1[O-]
inactive: dose: 50.0 mg/kg/injection, schedule: Q01DX009 (ip), vehicle: Klucel (hydroxypropylcellulose) (HPC) 98 % of control | [1] 100 % of control | [2] 101 % of control

O=C(CC(c1ccccc1)C(C(=O)O)c1ccccc1)c1ccccc1 (configuration not stated)
inactive: dose: 25.0 mg/kg/injection, schedule: Q01DX001 (ip), vehicle: saline with Tween-80 92 % of control | dose: 50.0 mg/kg/injection, schedule: Q01DX001 (ip), vehicle: saline with Tween-80 92 % of control | dose: 100.0 mg/kg/injection, schedule: Q01DX001 (ip), vehicle: saline with Tween-80 87 % of control | dose: 200.0 mg/kg/injection, schedule: Q01DX001 (ip), vehicle: saline with Tween-80 86 % of control

CSC1(c2ccccc2NS(=O)(=O)c2ccccc2)SCCS1
inactive: dose: 50.0 mg/kg/injection, schedule: Q04DX003 (ip), vehicle: saline 102 % of control | dose: 100.0 mg/kg/injection, schedule: Q04DX003 (ip), vehicle: saline 92 % of control | dose: 200.0 mg/kg/injection, schedule: Q04DX003 (ip), vehicle: saline 89 % of control

Cc1c2ccncc2c(C)c2c1[nH]c1ccc(OCCN(C)C)cc12
inactive: dose: 6.25 mg/kg/injection, schedule: Q04DX002 (ip), vehicle: water 108 % of control | dose: 12.5 mg/kg/injection, schedule: Q04DX002 (ip), vehicle: water 114 % of control | dose: 25.0 mg/kg/injection, schedule: Q04DX002 (ip), vehicle: water 119 % of control | dose: 50.0 mg/kg/injection, schedule: Q04DX002 (ip), vehicle: water 87 % of control

O=C1NC(c2cccc3ccccc23)Nc2ccc(O)cc21 (configuration not stated)
inactive: dose: 8.75 mg/kg/injection, schedule: Q01DX005 (ip), vehicle: DMSO 102 % of control | dose: 17.5 mg/kg/injection, schedule: Q01DX005 (ip), vehicle: DMSO 100 % of control | dose: 35.0 mg/kg/injection, schedule: Q01DX005 (ip), vehicle: DMSO 102 % of control | dose: 70.0 mg/kg/injection, schedule: Q01DX005 (ip), vehicle: DMSO 98 % of control | dose: 140.0 mg/kg/injection, schedule: Q01DX005 (ip), vehicle: DMSO 100 % of control

C=COCC(C)C (tested in a mixture with another compound)
inactive: dose: 1.56 mg/kg/injection, schedule: Q01DX009 (ip), vehicle: saline with Tween-80 108 % of control | dose: 3.12 mg/kg/injection, schedule: Q01DX009 (ip), vehicle: saline with Tween-80 101 % of control | dose: 6.25 mg/kg/injection, schedule: Q01DX009 (ip), vehicle: saline with Tween-80 96 % of control

COc1cc(C(=O)CCCC(=O)O)cc(OC)c1OC
inactive: [7] 96 % of control | [3] 92 % of control | [8] 88 % of control

O=C(NC(=O)C(F)(F)F)Nc1ccc(F)c(Cl)c1
inactive: [7] 96 % of control | [3] 105 % of control | [8] 104 % of control
